Test results: the supplement of paper PMC13380429

Columns and labels:
Conditions in all cases: 72 h
[1] = tested on: Caco-2; assay: cell viability relative to DMSO; higher = less toxic
[2] = tested on: Calu-3; assay: as above
[3] = tested on: HepG2; assay: as above
[4] = tested on: U2OS; assay: as above
[5] = tested on: Vero E6; assay: as above
[6] = tested on: Caco-2; assay: relative viability EC50 (midpoint between 100% and the lowest measured viability); higher = less toxic
[7] = tested on: Calu-3; assay: as above
[8] = tested on: HepG2; assay: as above
[9] = tested on: U2OS; assay: as above
[10] = tested on: Vero E6; assay: as above
[11] = tested on: Caco-2; assay: drug sensitivity score (DSS) for viability; higher = more toxic; extreme values may be limits of the assay
[12] = tested on: Calu-3; assay: as above
[13] = tested on: HepG2; assay: as above
[14] = tested on: U2OS; assay: as above
[15] = tested on: Vero E6; assay: as above

| SMILES | cell viability ([1]; 1 nM) | cell viability ([1]; 10 nM) | cell viability ([1]; 100 nM) | cell viability ([1]; 1000 nM) | cell viability ([1]; 10000 nM) | cell viability ([2]; 1 nM) | cell viability ([2]; 10 nM) | cell viability ([2]; 100 nM) | cell viability ([2]; 1000 nM) | cell viability ([2]; 10000 nM) | cell viability ([3]; 1 nM) | cell viability ([3]; 10 nM) | cell viability ([3]; 100 nM) | cell viability ([3]; 1000 nM) | cell viability ([3]; 10000 nM) | cell viability ([4]; 1 nM) | cell viability ([4]; 10 nM) | cell viability ([4]; 100 nM) | cell viability ([4]; 1000 nM) | cell viability ([4]; 10000 nM) | cell viability ([5]; 1 nM) | cell viability ([5]; 10 nM) | cell viability ([5]; 100 nM) | cell viability ([5]; 1000 nM) | cell viability ([5]; 10000 nM) | relative viability EC50 [6] | relative viability EC50 [7] | relative viability EC50 [8] | relative viability EC50 [9] | relative viability EC50 [10] | drug sensitivity score [11] | drug sensitivity score [12] | drug sensitivity score [13] | drug sensitivity score [14] | drug sensitivity score [15] |
| --- | --- | --- | --- | --- | --- | --- | --- | --- | --- | --- | --- | --- | --- | --- | --- | --- | --- | --- | --- | --- | --- | --- | --- | --- | --- | --- | --- | --- | --- | --- | --- | --- | --- | --- | --- |
| CC1(C)[C@@H]2C[C@@H](O)[C@@](C)(O)[C@H]1C2 [2,3-cis/exo-pinanediol] | 103% | 101% | 97.2% | 108% | 87.2% | 106% | 98.1% | 102% | 106% | 103% | 100% | 110% | 104% | 93.9% | 108% | 96.1% | 97.3% | 95.7% | 100% | 97.3% | 100% | 99.9% | 99.3% | 93.1% | 100% | > 10 µM | > 10 µM | > 10 µM | > 10 µM | > 10 µM | 0 | 0 | 0 | 0 | 0 |
| CC(C)(C)NCC(O)COc1cccc2[nH]c(C#N)cc12 (stereo not given) [cyanopindolol] | 103% | 103% | 95.8% | 99.7% | 97.5% | 85.4% | 105% | 100% | 96.8% | 92.8% | 93% | 95.7% | 89.6% | 102% | 95.8% | 100% | 98.8% | 96.7% | 94.7% | 101% | 102% | 103% | 100% | 104% | 97% | > 10 µM | > 10 µM | > 10 µM | > 10 µM | > 10 µM | 0 | 0 | 0 | 0 | 0 |
| CCNC1=Nc2ccc(Cl)cc2C(C)(c2ccccc2)O1 (stereo not given) [etifoxine] | 90.1% | 102% | 96.1% | 92.2% | 97.3% | 94.4% | 97.2% | 102% | 102% | 90.7% | 95.7% | 100% | 101% | 107% | 95.3% | 92.1% | 96.9% | 99.8% | 98.3% | 98% | 94.8% | 98.1% | 95.5% | 99.3% | 112% | > 10 µM | > 10 µM | > 10 µM | > 10 µM | > 10 µM | 0 | 0 | 0 | 0 | 0 |
| O=C1Nc2ccc(Cl)c3c2C1(CCCCN1CC=C(c2ccc(Cl)cc2)CC1)CCC3 (stereo not given) [DR-4485] | 103% | 95.3% | 99.6% | 92.3% | 4.8% | 105% | 87.6% | 103% | 99.9% | 1.7% | 93.7% | 100% | 94.1% | 102% | -0.2% | 96.2% | 97.5% | 98.6% | 94.7% | 2.4% | 100% | 96.7% | 92.9% | 91.1% | 42.5% | 2.5 µM | 3.16 µM | 3.27 µM | 2.74 µM | 1.95 µM | 6.5 | 5.5 | 5.4 | 6.2 | 4.6 |
| O=C(O)C(Cc1ccccc1[N+](=O)[O-])=NNc1nc(-c2ccc(Cl)c(Cl)c2)cs1 [4EGI-1] | 87.1% | 103% | 98.1% | 112% | 84.8% | 98.1% | 100% | 97.7% | 104% | 96.7% | 101% | 104% | 102% | 91.6% | 45.5% | 94.5% | 96.7% | 93.8% | 93.7% | 93.1% | 97.9% | 95.3% | 96.7% | 92% | 100% | > 10 µM | > 10 µM | 1.96 µM | > 10 µM | > 10 µM | 0.1 | 0 | 4.3 | 0 | 0 |
| CCCCC[C@H](O)/C=C/[C@H]1[C@H](O)CC(=O)[C@@H]1CCCCCCC(=O)O [alprostadil] | 96.8% | 99% | 96.7% | 98.6% | 97.8% | 99% | 105% | 88.2% | 98.7% | 98.1% | 91.4% | 101% | 98.6% | 99.4% | 90.5% | 104% | 102% | 100% | 96.7% | 98.7% | 101% | 101% | 98.7% | 101% | 96.1% | > 10 µM | > 10 µM | > 10 µM | > 10 µM | > 10 µM | 0 | 0 | 0 | 0 | 0 |
| O=C(NCc1ccncc1)C12CC3CC(C1)CC(c1ccc(Cl)cc1)(C3)C2 | 99.6% | 94.9% | 98.6% | 96% | 92.9% | 104% | 100% | 89% | 92.2% | 89.3% | 96.7% | 107% | 105% | 98% | 93.7% | 97.4% | 99.2% | 101% | 97.8% | 93.5% | 102% | 104% | 104% | 105% | 89.3% | > 10 µM | > 10 µM | > 10 µM | > 10 µM | > 10 µM | 0 | 0.5 | 0 | 0 | 0 |
| O=C(CCCl)NCCc1ccccc1 [fenaclon] | 81.8% | 126% | 93.7% | 84.5% | 109% | 105% | 99.1% | 97.4% | 96% | 88.3% | 104% | 111% | 99.3% | 119% | 96.2% | 101% | 96.9% | 100% | 92.6% | 103% | 104% | 105% | 100% | 103% | 91.3% | > 10 µM | > 10 µM | > 10 µM | > 10 µM | > 10 µM | 0 | 0 | 0 | 0 | 0 |
| CCc1ccc(Cc2ccc3c(c2)[C@]2(OC3)O[C@H](CO)[C@@H](O)[C@H](O)[C@H]2O)cc1 [tofogliflozin] | 97.8% | 98.5% | 86.1% | 97% | 90.5% | 90.9% | 92.7% | 108% | 103% | 108% | 106% | 94.3% | 102% | 105% | 95.5% | 97.9% | 96.9% | 97.5% | 98% | 95.5% | 93.9% | 95.6% | 99.4% | 94.6% | 98.4% | > 10 µM | > 10 µM | > 10 µM | > 10 µM | > 10 µM | 0 | 0 | 0 | 0 | 0 |
| CC(=O)NCC(=O)N1[C@@H]2CC[C@H]1c1ccc(Nc3ncc(C(F)(F)F)c(NC4CCC4)n3)cc12 | 95.9% | 89.2% | 101% | 79.3% | 40.7% | 101% | 97.7% | 99.4% | 121% | 83% | 93.8% | 99.6% | 84.6% | 62.4% | 3.4% | 98.6% | 97.4% | 94.4% | 67.3% | 2.9% | 92.6% | 98.6% | 96.6% | 82.1% | 46% | 1.28 µM | > 10 µM | 1.27 µM | 1.37 µM | 1.39 µM | 6.2 | 0.1 | 9.7 | 9.6 | 5.2 |
| Cn1ncc2c(N3CCOCC3)nc(-c3cccc(O)c3)nc21 | 99.9% | 108% | 94.5% | 61.5% | 25.2% | 86.3% | 102% | 83.7% | 79.1% | 24.5% | 100% | 101% | 111% | 95.6% | 19.8% | 98.8% | 99.6% | 99.3% | 90.6% | 28.9% | 100% | 102% | 98.9% | 78% | 30.9% | 0.938 µM | 1.64 µM | 2.74 µM | 2.1 µM | 1.35 µM | 8.7 | 6.7 | 5.1 | 5.5 | 7 |
| COc1ccc(-n2nc(C(F)(F)F)cc2-c2ccc(Cl)cc2)cc1 [SC-560] | 101% | 99.1% | 95.7% | 92.2% | 86.6% | 104% | 104% | 109% | 95.3% | 108% | 106% | 104% | 104% | 91% | 87% | 102% | 99.9% | 104% | 98.8% | 100% | 98.2% | 105% | 92.6% | 100% | 44.3% | > 10 µM | > 10 µM | > 10 µM | > 10 µM | 3.18 µM | 0.2 | 0 | 0.6 | 0 | 3 |
| c1ccc2c(c1)[I+]c1ccccc1-2 [diphenyleneiodonium] | 92.9% | 97.3% | 72.3% | 61.9% | 37% | 92.6% | 94.5% | 78.8% | 69.1% | 44.9% | 110% | 87.7% | 14.9% | 8.2% | 2.4% | 95.4% | 95.1% | 64.8% | 39.3% | 20.7% | 94.9% | 95% | 65.9% | 38.9% | 25.1% | 0.251 µM | 0.308 µM | 0.0322 µM | 0.16 µM | 0.137 µM | 10.8 | 8.6 | 29.3 | 16 | 15.8 |
| NC(N)=Nc1nc(CSCC/C(N)=N/S(N)(=O)=O)cs1 [famotidine] | 107% | 106% | 108% | 97.2% | 109% | 107% | 91.5% | 113% | 105% | 97.7% | 106% | 102% | 90.4% | 97.5% | 93.4% | 94.3% | 95.4% | 99.6% | 95% | 99.4% | 113% | 106% | 89.2% | 101% | 94.3% | > 10 µM | > 10 µM | > 10 µM | > 10 µM | > 10 µM | 0 | 0 | 0 | 0 | 0 |
| C[C@H]1CCc2c(cc(Br)c(F)c2Br)N1C=O [CE3F4] | 105% | 99.9% | 91.9% | 104% | 88.8% | 105% | 102% | 89.6% | 93.7% | 90% | 110% | 99.2% | 113% | 100% | 103% | 98.3% | 101% | 99.6% | 102% | 96.1% | 103% | 101% | 98.2% | 93.8% | 102% | > 10 µM | > 10 µM | > 10 µM | > 10 µM | > 10 µM | 0 | 0.2 | 0 | 0 | 0 |
